# Reference: paper PMC5014220, “An α‐Helix‐Mimicking 12,13‐Helix: Designed α/β/γ‐Foldamers as Selective Inhibitors of Protein–Protein Interactions” (Angewandte Chemie (International Ed. in English), 2016)
# Legend:
# [1] = test system: α‐chymotrypsin (α‐CT); assay: Proteolytic stability with α-chymotrypsin (HPLC); type: in vitro ADME; conditions: α-chymotrypsin type II from bovine pancreas, 1:10000 enzyme/substrate; peptide 200 μM stock in PBS pH 7.50, 2% DMSO; followed by analytical HPLC; fold versus p53_15–31
# Description: The proteolytic stability of α/β/γ‐peptides 1–8 was investigated using α‐chymotrypsin (α‐CT) as a representative protease, since this enzyme selectively hydrolyses the amide bond on the C‐terminal side of hydrophobic residues such as Leu, Trp, and Phe, all of which are present in the α/β/γ‐peptide sequences. The p53_15–31 peptide was also studied for comparison (see the Supporting Information). […] For the latter four peptides, the proteolytic activity corresponded to methyl ester hydrolysis of the C‐terminal Leu residue; in all eight cases, therefore, the hexapeptide core remained largely intact for the duration of the experiments.
# IV. Proteolysis studies of peptides 1-8
# α-Chymotrypsin Type II from bovine pancreas (lyophilized powder, MW = 25 kDa, ≥ 40 units/mg protein) was purchased from Sigma-Aldrich and used without further purification.
# α/β/γ-Peptides and p53(15-31) peptide (200 µM stock in PBS buffer pH 7.50, 2% DMSO) were treated with α-Chymotrypsin Type II from bovine pancreas (0.02 µM stock solutions in PBS buffer pH 7.50) in a 1:10000 enzyme/substrate ratio. The degradation was followed with analytical HPLC (Ascentis® Express Peptide Column, injection volume: 20 µL, acetonitrile/water (0.1% TFA) 5-95% gradient) and the data was analysed to extract kinetic values.
# 1. HPLC traces of the positive control (native p53) in presence of α-Chymotrypsin
# (1 picture or pasted object on this page, not shown here)
# [2] = biological target: T1, FITC–NOXA B/Mcl‐1 protein–protein interaction (Homo sapiens, UniProt Q07820); assay: FA competition assay, FITC–NOXA B/Mcl-1; type: binding; conditions: 50 nM FITC-NOXA B(68-87), 150 nM Mcl-1(172-327), top concentration 222 μM, 1 h room temperature, triplicate
# T1 construct: Mcl-1(172-327)
# [3] = biological target: T2, p53/hDM2 interaction (FITC–p53_15–31 / hDM2(17-126) L33E) (Homo sapiens, UniProt Q00987, L33E); assay: Fluorescence anisotropy (FA) competition assay against p53/hDM2; type: binding; conditions: for IC50: 50 nM FITC–p53(15-31), 150 nM hDM2(17-126) L33E, 40 mM phosphate buffer pH 7.5, 200 mM NaCl, 0.02 mg mL−1 BSA, 5 % DMSO, read after 1 h at room temperature, triplicate, fit ± error; for Displacement of FITC–p53_15–31 from hDM2 (in words): same conditions, lower asymptote of the competition curve not achieved at higher concentrations, IC50 ND
# T2 construct: hDM2(17-126)
# [4] = biological target: BODIPY–BAK/Bcl‐xL protein–protein interaction (Homo sapiens, UniProt Q07817); assay: FA competition assay, BODIPY–BAK/Bcl-xL; type: binding; conditions: 50 nM BODIPY-Bak, 150 nM Bcl-xL, top concentration 222 μM, 1 h room temperature, triplicate
SMILES,Resistance to α‐CT relative to native p53_15–31 [1] [fold],Inhibitory activity on FITC–NOXA B/Mcl‐1 interaction [2],IC50 [3] [µM],Inhibitory activity on BODIPY–BAK/Bcl‐xL interaction [4],Displacement of FITC–p53_15–31 from hDM2 (in words) [3]
COC(=O)[C@H](CC(C)C)NC(=O)[C@H]1CC[C@@H]1NC(=O)CC[C@H](Cc1c[nH]c2ccccc12)NC(=O)[C@H]1CC[C@@H]1NC(=O)CC[C@@H](C)NC(=O)[C@H](Cc1ccccc1)NC(=O)OC(C)(C)C [Peptide 1],≥ 10,no inhibitory activity,57 ± 22,no inhibitory activity,–
COC(=O)CC[C@H](CC(C)C)NC(=O)[C@H]1CC[C@@H]1NC(=O)CC[C@H](Cc1c[nH]c2ccccc12)NC(=O)[C@H]1CC[C@@H]1NC(=O)CC[C@@H](C)NC(=O)[C@H](Cc1ccccc1)NC(=O)OC(C)(C)C [Peptide 2],–,no inhibitory activity,15 ± 2,no inhibitory activity,–
COC(=O)[C@H](CC(C)C)NC(=O)[C@H]1CC[C@@H]1NC(=O)CC[C@H](Cc1ccccc1)NC(=O)[C@H]1CC[C@@H]1NC(=O)CC[C@@H](C)NC(=O)[C@H](Cc1ccccc1)NC(=O)OC(C)(C)C [Peptide 3],≥ 10,–,> 100,–,–
COC(=O)CC[C@H](CC(C)C)NC(=O)[C@H]1CC[C@@H]1NC(=O)CC[C@H](Cc1ccccc1)NC(=O)[C@H]1CC[C@@H]1NC(=O)CC[C@@H](C)NC(=O)[C@H](Cc1ccccc1)NC(C)=O [Peptide 8],–,–,–,–,effectively displaced FITC–p53_15–31 at micromolar concentrations

# Second part, led by results:
Resistance to α‐CT relative to native p53_15–31 [1] [fold],Inhibitory activity on FITC–NOXA B/Mcl‐1 interaction [2],IC50 [3] [µM],Inhibitory activity on BODIPY–BAK/Bcl‐xL interaction [4],SMILES,Displacement of FITC–p53_15–31 from hDM2 (in words) [3]
≥ 32,–,> 100,–,COC(=O)CC[C@H](CC(C)C)NC(=O)[C@H]1CC[C@@H]1NC(=O)CC[C@H](Cc1ccccc1)NC(=O)[C@H]1CC[C@@H]1NC(=O)CC[C@@H](C)NC(=O)[C@H](Cc1ccccc1)NC(=O)OC(C)(C)C [Peptide 4],–
≥ 10,–,> 100,–,COC(=O)[C@H](CC(C)C)NC(=O)[C@H]1CC[C@@H]1NC(=O)CC[C@H](Cc1c[nH]c2ccccc12)NC(=O)[C@H]1CC[C@@H]1NC(=O)CC[C@@H](C)NC(=O)[C@H](Cc1ccccc1)NC(C)=O [Peptide 5],–
≥ 32,–,–,–,COC(=O)CC[C@H](CC(C)C)NC(=O)[C@H]1CC[C@@H]1NC(=O)CC[C@H](Cc1c[nH]c2ccccc12)NC(=O)[C@H]1CC[C@@H]1NC(=O)CC[C@@H](C)NC(=O)[C@H](Cc1ccccc1)NC(C)=O [Peptide 6],effectively displaced FITC–p53_15–31 at micromolar concentrations
≥ 10,–,> 100,–,COC(=O)[C@H](CC(C)C)NC(=O)[C@H]1CC[C@@H]1NC(=O)CC[C@H](Cc1ccccc1)NC(=O)[C@H]1CC[C@@H]1NC(=O)CC[C@@H](C)NC(=O)[C@H](Cc1ccccc1)NC(C)=O [Peptide 7],–
